Results taken from ChEMBL document CHEMBL1817545, “Synthesis and molecular modeling of 1H-pyrrolopyrimidine-2,4-dione derivatives as ligands for the α1-adrenoceptors” (Bioorg Med Chem, 2011).

Key:
[1] = biological target: T1, Adrenergic receptor alpha-1 (Rattus norvegicus, UniProt P15823+P23944+P43140); experiment: Displacement of [3H]prazosin from alpha1-ARs in CRL:CD(SD)BR-COBS rat brain cortex after 30 mins by liquid scintillation spectrometry
T1 sequence (P15823 whole entry): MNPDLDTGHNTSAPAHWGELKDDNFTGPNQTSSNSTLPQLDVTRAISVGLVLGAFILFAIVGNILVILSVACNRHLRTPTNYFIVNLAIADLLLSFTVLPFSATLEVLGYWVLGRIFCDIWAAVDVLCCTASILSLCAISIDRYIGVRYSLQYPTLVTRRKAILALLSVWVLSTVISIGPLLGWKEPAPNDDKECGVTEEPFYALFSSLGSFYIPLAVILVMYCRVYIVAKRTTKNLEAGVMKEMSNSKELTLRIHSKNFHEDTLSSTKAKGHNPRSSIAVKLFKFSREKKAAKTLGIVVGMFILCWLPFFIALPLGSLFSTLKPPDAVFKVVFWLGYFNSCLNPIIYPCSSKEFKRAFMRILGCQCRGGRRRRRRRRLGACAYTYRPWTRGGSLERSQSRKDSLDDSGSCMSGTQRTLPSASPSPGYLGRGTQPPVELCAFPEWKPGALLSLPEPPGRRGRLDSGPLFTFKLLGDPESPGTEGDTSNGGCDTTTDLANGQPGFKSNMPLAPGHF
T1 sequence (P23944 whole entry): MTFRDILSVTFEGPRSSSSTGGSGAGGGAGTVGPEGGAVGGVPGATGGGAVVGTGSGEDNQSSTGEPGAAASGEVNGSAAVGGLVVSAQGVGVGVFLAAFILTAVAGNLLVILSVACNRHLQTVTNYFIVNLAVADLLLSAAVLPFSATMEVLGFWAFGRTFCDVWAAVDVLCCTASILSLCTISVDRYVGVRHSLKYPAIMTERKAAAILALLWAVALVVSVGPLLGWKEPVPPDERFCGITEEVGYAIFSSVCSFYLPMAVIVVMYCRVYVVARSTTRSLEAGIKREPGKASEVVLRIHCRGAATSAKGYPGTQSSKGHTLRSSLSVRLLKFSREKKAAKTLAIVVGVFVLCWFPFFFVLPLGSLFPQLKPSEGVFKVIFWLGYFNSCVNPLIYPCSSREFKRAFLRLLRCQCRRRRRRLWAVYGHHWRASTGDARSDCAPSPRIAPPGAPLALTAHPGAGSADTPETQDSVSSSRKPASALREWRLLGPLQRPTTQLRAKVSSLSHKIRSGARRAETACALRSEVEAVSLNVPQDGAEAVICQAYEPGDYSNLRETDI
T1 sequence (P43140 whole entry): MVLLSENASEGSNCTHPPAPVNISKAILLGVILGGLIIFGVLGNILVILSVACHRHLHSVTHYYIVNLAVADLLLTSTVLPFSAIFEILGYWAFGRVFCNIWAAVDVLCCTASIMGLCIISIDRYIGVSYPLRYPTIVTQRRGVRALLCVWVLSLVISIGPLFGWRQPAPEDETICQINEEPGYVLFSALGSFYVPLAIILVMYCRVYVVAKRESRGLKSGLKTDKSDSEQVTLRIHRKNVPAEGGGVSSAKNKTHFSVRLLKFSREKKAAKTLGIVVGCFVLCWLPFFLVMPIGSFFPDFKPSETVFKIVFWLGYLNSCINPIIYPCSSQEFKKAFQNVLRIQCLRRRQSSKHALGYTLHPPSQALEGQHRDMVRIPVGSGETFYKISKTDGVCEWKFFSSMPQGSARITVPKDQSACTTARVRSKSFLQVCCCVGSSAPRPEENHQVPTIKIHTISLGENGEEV

[2] = biological target: T2, 5-hydroxytryptamine receptor 1A (Rattus norvegicus, UniProt P19327); experiment: Displacement of [3H]-8-OH-DPAT from 5HT1A in CRL:CD(SD)BR-COBS rat brain hippocampus after 30 mins by liquid scintillation spectrometry; format: tissue-based
T2 sequence (P19327 whole entry): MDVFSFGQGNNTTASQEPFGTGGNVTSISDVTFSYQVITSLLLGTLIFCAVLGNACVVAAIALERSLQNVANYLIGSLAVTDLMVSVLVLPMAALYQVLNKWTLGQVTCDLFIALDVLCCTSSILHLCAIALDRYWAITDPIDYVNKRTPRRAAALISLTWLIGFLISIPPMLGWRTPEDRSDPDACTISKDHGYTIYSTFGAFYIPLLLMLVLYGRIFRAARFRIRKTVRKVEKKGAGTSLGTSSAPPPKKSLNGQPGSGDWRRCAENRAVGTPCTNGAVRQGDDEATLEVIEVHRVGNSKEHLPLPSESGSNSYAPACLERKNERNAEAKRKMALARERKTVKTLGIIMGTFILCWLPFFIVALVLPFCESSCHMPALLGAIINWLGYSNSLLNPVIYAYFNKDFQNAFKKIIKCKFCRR

Rattus norvegicus = species: Rattus norvegicus; experiment: Ratio of Ki for CRL:CD(SD)BR-COBS rat brain hippocampus 5HT1A to Ki for CRL:CD(SD)BR-COBS rat brain cortex alpha1-AR; format: tissue-based

Ki [1] [µM]	Ki [2] [µM]	Ratio Ki (Rattus norvegicus)	SMILES
0.01417	0.22	15.5	O=c1[nH]c2cc(-c3ccco3)[nH]c2c(=O)n1CCN1CCN(c2ccccc2Cl)CC1
0.00208	0.0134	6.44	COc1ccccc1N1CCN(CCn2c(=O)[nH]c3c(-c4ccccc4)c[nH]c3c2=O)CC1
–	–	> 800	O=c1[nH]c2cc(-c3ccc(Cl)cc3)[nH]c2c(=O)n1CCN1CCN(c2ccccc2Cl)CC1
0.0245	0.198	8.08	COc1ccccc1N1CCN(CCn2c(=O)c3cc(-c4ccccc4)[nH]c3n(Cc3ccccc3)c2=O)CC1
0.00338	0.0289	8.54	COc1ccccc1N1CCN(CCn2c(=O)[nH]c3cc(-c4ccco4)[nH]c3c2=O)CC1
0.00114	0.0431	37.8	O=c1[nH]c2c(-c3ccccc3)c[nH]c2c(=O)n1CCN1CCN(c2ccccc2Cl)CC1
0.0892	4.67	52.3	COc1ccc(-c2cc3c(=O)n(CCN4CCN(c5ccccc5Cl)CC4)c(=O)n(Cc4ccccc4OC)c3[nH]2)cc1
0.125	4.72	37.8	O=c1[nH]c2[nH]c(-c3ccc(Oc4ccccc4)cc3)cc2c(=O)n1CCN1CCN(c2ccccc2Cl)CC1
0.01586	0.184	11.6	COc1ccc(-c2cc3c(=O)n(CCN4CCN(c5ccccc5OC)CC4)c(=O)n(Cc4ccccc4OC)c3[nH]2)cc1
0.00482	0.466	96.7	COc1ccccc1N1CCN(CCn2c(=O)[nH]c3[nH]c(-c4ccccc4)c(-c4ccccc4)c3c2=O)CC1
0.00139	0.0651	46.9	CC(C)(C)c1cc2[nH]c(=O)n(CCN3CCN(c4ccccc4Cl)CC3)c(=O)c2[nH]1
0.04371	0.0171	0.39	COc1ccccc1N1CCN(CCn2c(=O)[nH]c3[nH]c(-c4ccc(Oc5ccccc5)cc4)cc3c2=O)CC1
0.01031	0.784	76	COc1ccccc1N1CCN(CCn2c(=O)[nH]c3[nH]c(-c4ccc(OCc5ccccc5)cc4)cc3c2=O)CC1
0.0543	3.68	67.8	COc1ccccc1N1CCN(CCn2c(=O)[nH]c3[nH]c(-c4ccc(-c5ccccc5)cc4)cc3c2=O)CC1
0.00408	0.401	98.4	COc1ccccc1N1CCN(CCn2c(=O)[nH]c3[nH]c(-c4ccc(Cl)cc4)cc3c2=O)CC1
0.00264	1.51	> 500	O=c1[nH]c2[nH]c(-c3ccc(Cl)cc3)cc2c(=O)n1CCN1CCN(c2ccccc2Cl)CC1
0.0119	1.54	129	O=c1[nH]c2[nH]c(-c3ccccc3)c(-c3ccccc3)c2c(=O)n1CCN1CCN(c2ccccc2Cl)CC1
0.00114	0.0815	71.5	O=c1[nH]c2c(-c3ccccc3Cl)c[nH]c2c(=O)n1CCN1CCN(c2ccccc2Cl)CC1
0.00336	0.0326	9.7	COc1ccccc1N1CCN(CCn2c(=O)[nH]c3c(-c4ccc(Cl)cc4)c[nH]c3c2=O)CC1
0.03541	1.02	28.8	O=c1c2cc(-c3ccccc3)[nH]c2n(Cc2ccccc2)c(=O)n1CCN1CCN(c2ccccc2Cl)CC1
0.00169	0.0467	27.7	COc1ccccc1N1CCN(CCn2c(=O)[nH]c3cc(C(C)(C)C)[nH]c3c2=O)CC1
–	–	> 1000	COc1ccccc1N1CCN(CCn2c(=O)[nH]c3cc(-c4ccc(Cl)cc4)[nH]c3c2=O)CC1

SMILES	Ki [1] [µM]	Ki [2] [µM]	Ratio Ki (Rattus norvegicus)
O=c1[nH]c2[nH]c(-c3ccc(OCc4ccccc4)cc3)cc2c(=O)n1CCN1CCN(c2ccccc2Cl)CC1	0.07091	> 10	> 141
COc1ccccc1N1CCN(CCn2c(=O)[nH]c3[nH]c(-c4ccc(OCCOc5ccccc5)cc4)cc3c2=O)CC1	0.05363	> 10	> 186
O=c1[nH]c2c(-c3ccc(Cl)cc3)c[nH]c2c(=O)n1CCN1CCN(c2ccccc2Cl)CC1	0.00271	> 10	> 3500
O=c1[nH]c2[nH]c(-c3ccc(-c4ccccc4)cc3)cc2c(=O)n1CCN1CCN(c2ccccc2Cl)CC1	0.183	> 10	> 54.6
Cc1ccc(-c2c[nH]c3c(=O)n(CCN4CCN(c5ccccc5Cl)CC4)c(=O)[nH]c23)cc1	0.00496	> 10	> 2000
O=c1[nH]c2[nH]c(-c3ccc(OCCOc4ccccc4)cc3)cc2c(=O)n1CCN1CCN(c2ccccc2Cl)CC1	0.126	> 10	> 79
